Laboratory results: patent publication US20250122219A1 (priority 2023, published 2025)
Where two headings read alike, the source gives them in different places.

Key:
[1] = tested on: HIV-1 (IIIB); test: Antiviral assay in MT-4 cells; format: cell-based
How it was run: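 Read-out: CellTiter-Glo luminescence after 5 days at 37 °C, reflecting survival of MT-4 cells infected with HIV-1 IIIB (1:250 fresh stock dilution) versus mock-infected. Compounds serially diluted into RPMI with 10% FBS; AZT at 5 μM served as positive control.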

[2] = Cytotoxicity assay in MT-4 cells; format: cell-based; details: human; uninfected MT-4 cells, 5 days incubation, Cell Titer Glo; read-out: MT4 CC50
How it was run: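 Viability read by Cell Titer Glo luminescence after 5 days at 37 °C. MT-4 cells, not infected, in complete RPMI (10% FBS), received compound dilution series. Base cytotoxicity set with […] puromycin.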

[3] = Human immunodeficiency virus 1, MT4, 120 h, HIV-1 IIIB in MT-4 cells, 5 days incubation, Cell Titer Glo, read-out: MT4 EC50
[4] = Human immunodeficiency virus 1, IIIB, MT4, 120 h, read-out: MT4 EC50 (nM)

Row | Structure (SMILES) | EC50 [1, 3] [nM] | CC50 at 5 days [2] [nM] | EC50 [1, 4] [nM]
1 | CCCCCCCCCCCCCCCC(=O)Oc1c2n(cc(C(=O)NCc3ccc(F)cc3F)c1=O)[C@@H]1CN(C2=O)[C@@H](C)CC[C@]12CC(C)=NO2 [Example 14, (3′S,5S,7′R)-10′-((2,4-difluorobenzyl)carbamoyl)-3,3′-dimethyl-1′,11′-dioxo-1′,4′,5′,11′-tetrahydro-3′H,4H,7′H-spiro[isoxazole-5,6′-[2,7]methanopyrido[1,2-a][1,4]diazonin]-12′-yl palmitate] | 6.46 | ≥ 50000 | 
2 | COC1=NO[C@@]2(CC[C@H](C)N3C[C@H]2n2cc(C(=O)NCc4ccc(F)cc4F)c(=O)c(OCOC(=O)CCC(C)C)c2C3=O)C1 [Example 82, (((3′S,5S,7′R)-10′-((2,4-difluorobenzyl)carbamoyl)-3-methoxy-3′-methyl-1′,11′-dioxo-1′,4′,5′,11′-tetrahydro-3′H,4H,7′H-spiro[isoxazole-5,6′-[2,7]methanopyrido[1,2-a][1,4]diazonin]-12′-yl)oxy)methyl 4-methylpentanoate] |  | 17300 | 2.52
3 | COC1=NO[C@@]2(CC[C@H](C)N3C[C@H]2n2cc(C(=O)NCc4ccc(F)cc4F)c(=O)c(OCOC(=O)OCCCCC(C)C)c2C3=O)C1 [Example 206, (((3′S,5S,7′R)-10′-((2,4-difluorobenzyl)carbamoyl)-3-methoxy-3′-methyl-1′,11′-dioxo-1′,4′,5′,11′-tetrahydro-3′H,4H,7′H-spiro[isoxazole-5,6′-[2,7]methanopyrido[1,2-a][1,4]diazonin]-12′-yl)oxy)methyl (5-methylhexyl) carbonate] | 2.44 | 37200 | 
4 | CCCCCCCCCCCCCCCCCCOC(=O)Oc1c2n(cc(C(=O)NCc3ccc(F)cc3F)c1=O)[C@@H]1CN(C2=O)[C@@H](C)CC[C@]12CC(C)=NO2 [Example 146, (3′S,5S,7′R)-10′-((2,4-difluorobenzyl)carbamoyl)-3,3′-dimethyl-1′,11′-dioxo-1′,4′,5′,11′-tetrahydro-3′H,4H,7′H-spiro[isoxazole-5,6′-[2,7]methanopyrido[1,2-a][1,4]diazonin]-12′-yl octadecyl carbonate] | 7.56 | ≥ 50000 | 
5 | CCCCCCCCCCCCCCCCCCOC(=O)Oc1c2n(cc(C(=O)NCc3ccc(F)cc3F)c1=O)[C@@H]1CN(C2=O)[C@@H](C)CC[C@]12CC(OC)=NO2 [Example 147, (3′S,5S,7′R)-10′-((2,4-difluorobenzyl)carbamoyl)-3-methoxy-3′-methyl-1′,11′-dioxo-1′,4′,5′,11′-tetrahydro-3′H,4H,7′H-spiro[isoxazole-5,6′-[2,7]methanopyrido[1,2-a][1,4]diazonin]-12′-yl octadecyl carbonate] | 7.16 | ≥ 50000 | 
6 | CC1=NO[C@@]2(CC[C@H](C)N3C[C@H]2n2cc(C(=O)NCc4ccc(F)cc4F)c(=O)c(OC(=O)CCCCCC(C)C)c2C3=O)C1 [Example 65, (3′S,5S,7′R)-10′-((2,4-difluorobenzyl)carbamoyl)-3,3′-dimethyl-1′,11′-dioxo-1′,4′,5′,11′-tetrahydro-3′H,4H,7′H-spiro[isoxazole-5,6′-[2,7]methanopyrido[1,2-a][1,4]diazonin]-12′-yl 7-methyloctanoate] | 3.01 | 21800 | 
7 | COCCOCCOC(=O)OCOc1c2n(cc(C(=O)NCc3ccc(F)cc3F)c1=O)[C@@H]1CN(C2=O)[C@@H](C)CC[C@]12CC(C)=NO2 [Example 23, (((3′S,5S,7′R)-10′-((2,4-difluorobenzyl)carbamoyl)-3,3′-dimethyl-1′,11′-dioxo-1′,4′,5′,11′-tetrahydro-3′H,4H,7′H-spiro[isoxazole-5,6′-[2,7]methanopyrido[1,2-a][1,4]diazonin]-12′-yl)oxy)methyl (2-(2-methoxyethoxy)ethyl) carbonate] | 2.79 | 27300 | 
8 | COC1=NO[C@@]2(CC[C@H](C)N3C[C@H]2n2cc(C(=O)NCc4ccc(F)cc4F)c(=O)c(OC(=O)CCCCCCC(C)C)c2C3=O)C1 [Example 66, (3′S,5S,7′R)-10′-((2,4-difluorobenzyl)carbamoyl)-3-methoxy-3′-methyl-1′,11′-dioxo-1′,4′,5′,11′-tetrahydro-3′H,4H,7′H-spiro[isoxazole-5,6′-[2,7]methanopyrido[1,2-a][1,4]diazonin]-12′-yl 8-methylnonanoate] | 0.316 | 22300 | 
9 | COC1=NO[C@@]2(CC[C@H](C)N3C[C@H]2n2cc(C(=O)NCc4ccc(F)cc4F)c(=O)c(OC(=O)OC(C)C)c2C3=O)C1 [Example 30, (3′S,5S,7′R)-10′-((2,4-difluorobenzyl)carbamoyl)-3-methoxy-3′-methyl-1′,11′-dioxo-1′,4′,5′,11′-tetrahydro-3′H,4H,7′H-spiro[isoxazole-5,6′-[2,7]methanopyrido[1,2-a][1,4]diazonin]-12′-yl isopropyl carbonate] |  | 12600 | 1.3

Continued by falling EC50 [1, 3], values first:

Row | EC50 [1, 3] [nM] | Structure (SMILES) | CC50 at 5 days [2] [nM] | EC50 [1, 4] [nM]
10 | 16.7 | CCCCCCCCCCCCCCCCOC(=O)OCOc1c2n(cc(C(=O)NCc3ccc(F)cc3F)c1=O)[C@@H]1CN(C2=O)[C@@H](C)CC[C@]12CC(C)=NO2 [Example 194, (((3′S,5S,7′R)-10′-((2,4-difluorobenzyl)carbamoyl)-3,3′-dimethyl-1′,11′-dioxo-1′,4′,5′,11′-tetrahydro-3′H,4H,7′H-spiro[isoxazole-5,6′-[2,7]methanopyrido[1,2-a][1,4]diazonin]-12′-yl)oxy)methyl hexadecyl carbonate] | ≥ 50000 | 
11 | 6.29 | COC1=NO[C@@]2(CC[C@H](C)N3C[C@H]2n2cc(C(=O)NCc4ccc(F)cc4F)c(=O)c(OCOC(=O)OC(C)C)c2C3=O)C1 [Example 198, (((3′S,5S,7′R)-10′-((2,4-difluorobenzyl)carbamoyl)-3-methoxy-3′-methyl-1′,11′-dioxo-1′,4′,5′,11′-tetrahydro-3′H,4H,7′H-spiro[isoxazole-5,6′-[2,7]methanopyrido[1,2-a][1,4]diazonin]-12′-yl)oxy)methyl isopropyl carbonate] | ≥ 50000 | 
12 | 2 | CC1=NO[C@@]2(CC[C@H](C)N3C[C@H]2n2cc(C(=O)NCc4ccc(F)cc4F)c(=O)c(OC(=O)OCCCCCC(C)C)c2C3=O)C1 [Example 156, (3′S,5S,7′R)-10′-((2,4-difluorobenzyl)carbamoyl)-3,3′-dimethyl-1′,11′-dioxo-1′,4′,5′,11′-tetrahydro-3′H,4H,7′H-spiro[isoxazole-5,6′-[2,7]methanopyrido[1,2-a][1,4]diazonin]-12′-yl (6-methylheptyl) carbonate] | 14700 | 
13 | 1.83 | CCCCCOC(=O)Oc1c2n(cc(C(=O)NCc3ccc(F)cc3F)c1=O)[C@@H]1CN(C2=O)[C@@H](C)CC[C@]12CC(OC)=NO2 [Example 130, (3′S,5S,7′R)-10′-((2,4-difluorobenzyl)carbamoyl)-3-methoxy-3′-methyl-1′,11′-dioxo-1′,4′,5′,11′-tetrahydro-3′H,4H,7′H-spiro[isoxazole-5,6′-[2,7]methanopyrido[1,2-a][1,4]diazonin]-12′-yl pentyl carbonate] | 31700 | 
14 | 1.48 | COCCOC(=O)Oc1c2n(cc(C(=O)NCc3ccc(F)cc3F)c1=O)[C@@H]1CN(C2=O)[C@@H](C)CC[C@]12CC(OC)=NO2 [Example 1, (3′S,5S,7′R)-10′-((2,4-difluorobenzyl)carbamoyl)-3-methoxy-3′-methyl-1′,11′-dioxo-1′,4′,5′,11′-tetrahydro-3′H,4H,7′H-spiro[isoxazole-5,6′-[2,7]methanopyrido[1,2-a][1],4diazonin]-12′-yl (2-methoxyethyl) carbonate] | 10900 | 
15 | 0.819 | CCCCCCCOC(=O)Oc1c2n(cc(C(=O)NCc3ccc(F)cc3F)c1=O)[C@@H]1CN(C2=O)[C@@H](C)CC[C@]12CC(C)=NO2 [Example 133, (3′S,5S,7′R)-10′-((2,4-difluorobenzyl)carbamoyl)-3,3′-dimethyl-1′,11′-dioxo-1′,4′,5′,11′-tetrahydro-3′H,4H,7′H-spiro[isoxazole-5,6′-[2,7]methanopyrido[1,2-a][1,4]diazonin]-12′-yl heptyl carbonate] | 16700 | 
16 | 0.564 | CC1=NO[C@@]2(CC[C@H](C)N3C[C@H]2n2cc(C(=O)NCc4ccc(F)cc4F)c(=O)c(OCOC(=O)OCCCCCC(C)C)c2C3=O)C1 [Example 207, (((3′S,5S,7′R)-10′-((2,4-difluorobenzyl)carbamoyl)-3,3′-dimethyl-1′,11′-dioxo-1′,4′,5′,11′-tetrahydro-3′H,4H,7′H-spiro[isoxazole-5,6′-[2,7]methanopyrido[1,2-a][1,4]diazonin]-12′-yl)oxy)methyl (6-methylheptyl) carbonate] | 11300 | 
17 | 0.54 | CC/C=C\C/C=C\C/C=C\C/C=C\C/C=C\CCCC(=O)Oc1c2n(cc(C(=O)NCc3ccc(F)cc3F)c1=O)[C@@H]1CN(C2=O)[C@@H](C)CC[C@]12CC(OC)=NO2 [Example 69, (3′S,5S,7′R)-10′-((2,4-difluorobenzyl)carbamoyl)-3-methoxy-3′-methyl-1′,11′-dioxo-1′,4′,5′,11′-tetrahydro-3′H,4H,7′H-spiro[isoxazole-5,6′-[2,7]methanopyrido[1,2-a][1,4]diazonin]-12′-yl (5Z,8Z,11Z,14Z,17Z)-icosa-5,8,11,14,17-pentaenoate] | 42200 | 
18 | 0.319 | CCCCCCCC(=O)Oc1c2n(cc(C(=O)NCc3ccc(F)cc3F)c1=O)[C@@H]1CN(C2=O)[C@@H](C)CC[C@]12CC(C)=NO2 [Example 41, (3′S,5S,7′R)-10′-((2,4-difluorobenzyl)carbamoyl)-3,3′-dimethyl-1′,11′-dioxo-1′,4′,5′,11′-tetrahydro-3′H,4H,7′H-spiro[isoxazole-5,6′-[2,7]methanopyrido[1,2-a][1,4]diazonin]-12′-yl octanoate] | 11500 | 
